Read-outs that look alike come from different tables or passages of the source.
What was measured:
[1] = target: RGS8 (Homo sapiens (Human), UniProt P57771); test: FCPIA: Gαo binding to RGS8; details: for RGS8 Hill Slope: Table 3; for IC50: read-out: RGS8 IC50
Description: (§1) FCPIA Dose Response and Reversibility Experiments:

[2] = test system: RGS4; test: FCPIA: Gαo binding to RGS4; details: for RGS4 Hill Slope: Table 3; for IC50: read-out: RGS4 IC50; for activity at RGS4: FCPIA
Description: as §1

[3] = test system: HEK293 cells; test: Calcium mobilization induced by compound alone; assay type: cell-based; details: for Emax at 10 µM: Homo sapiens, HEK293, read-out: Calcium transient (% 50014); for induction of calcium transient by compound alone: 10 μM, HEK293 cells;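 on Calcium transient (% 50014): percent of response to 10 µM reference CCG-50014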
Experimental: Calcium Mobilization Experiments:
A stable cell line was developed based upon the HEK-293 Flp-In TREx cell line (Invitrogen, Carlsbad, Calif.) that stably express the muscarinic M3 receptor and have human RGS4 expression under doxycycline control. Cells were maintained in DMEM supplemented with 10% fetal bovine serum and Penicillin (100 units/ml)-Streptomycin (100 μg/ml) under 5% CO2 at 37° C. For experiments, cells were split into 96-well black, clear bottom, poly-D-lysine coated microtiter plates (Nunc, Cat. #152037) at a density of 20,000 cells/well in DMEM containing 10% fetal bovine serum and Penicillin (100 units/ml), Streptomycin (100 μg/ml). RGS4 expression was induced by supplementing the medium with 1 μg/mL doxycycline for 24-48 hours before experimentation. Cells were loaded with Fluo-4 No Wash dye in buffer for 30 minutes at 37° C. Compounds and/or carbachol were added to the wells and the fluorescence intensity was measured using a FlexStation (Molecular Devices, Sunnyvale, Calif.) plate reader. Data analysis was performed by calculating the area under the curve or maximal fluorescence intensity from a 120 second kinetic measurement.

[4] = Table 3, duplex FCPIA, average of two experiments
[5] = Table 2, mean of two independent FCPIA experiments

Chain of RGS8 (P57771 other isoform, or with tags, fused parts or gaps): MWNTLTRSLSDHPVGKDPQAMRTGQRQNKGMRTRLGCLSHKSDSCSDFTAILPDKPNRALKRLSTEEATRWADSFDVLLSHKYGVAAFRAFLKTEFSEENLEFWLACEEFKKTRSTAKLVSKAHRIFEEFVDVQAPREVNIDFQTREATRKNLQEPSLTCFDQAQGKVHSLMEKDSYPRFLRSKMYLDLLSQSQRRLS

With `O=c1sn(-c2ccccc2)c(=O)n1Cc1ccccc1` [CCG-203722, 2-phenyl-4-benzyl-1,2,4-thiadiazoline-3,5-dione] the “RGS8 Hill Slope” value [1] was −0.80, the IC50 ([1]; Table 6, FCPIA) was 5.6 µM and the “RGS4 Hill Slope” value [2] was −1.89. It also gave an IC50 [2, 4] of 0.024 µM and an Emax at 10 µM [3] of 3.8%.

`O=c1sn(-c2ccc(Cl)cc2)c(=O)n1Cc1ccccc1` [CCG-203723, 2-(4-chlorophenyl)-4-benzyl-1,2,4-thiazolidine-3,5-dione] was tested, and the “RGS8 Hill Slope” value [1] was −0.80, the IC50 [1, 4] was 5.2 µM and the “RGS4 Hill Slope” value [2] was −1.99. For the same compound, the IC50 [2, 4] was 0.029 µM and the Emax at 10 µM [3] was 120%.

For `O=c1sn(-c2ccc(Cl)c(Cl)c2)c(=O)n1Cc1ccccc1` [CCG-203725], the “RGS8 Hill Slope” value [1] was −1.62, the IC50 ([1]; Table 6, FCPIA) was 13.2 µM and the “RGS4 Hill Slope” value [2] was −2.06. The IC50 [2, 4] was 0.089 µM and the Emax at 10 µM [3] was 64.2%.

In the case of `O=c1sn(-c2ccccc2)c(=O)n1Cc1ccc(F)cc1` [CCG-203726, 2-phenyl-4-(4-fluorobenzyl)-1,2,4-thiadiazolidine-3,5-dione], the “RGS8 Hill Slope” value [1] is reported as −0.82, the IC50 ([1]; Table 6, FCPIA) is reported as 6.2 µM and the “RGS4 Hill Slope” value [2] is reported as −1.42. The IC50 [2, 4] was 0.016 µM and the Emax at 10 µM [3] was 20.9%.

With `O=c1sn(-c2ccc(Cl)c(Cl)c2)c(=O)n1Cc1ccc(F)cc1` [CCG-203728, 2-(3,4-dichlorophenyl)-4-(4-fluorobenzyl)-1,2,4-thiadiazolidine-3,5-dione] the “RGS8 Hill Slope” value [1] was −1.78, the IC50 [1, 4] was 17.2 µM and the “RGS4 Hill Slope” value [2] was −1.15. The IC50 [2, 4] was 0.036 µM and the Emax at 10 µM [3] was 128%.

In the case of `Cc1ccc(-n2sc(=O)n(Cc3ccc(Cl)cc3)c2=O)cc1` [CCG-203731, 2-p-tolyl-4-(4-chlorobenzyl)-1,2,4-thiadiazolidine-3,5-dione], the “RGS8 Hill Slope” value [1] is reported as −1.50, the IC50 ([1]; Table 6, FCPIA) is reported as 11.8 µM and the “RGS4 Hill Slope” value [2] is reported as −0.70. The IC50 ([2]; Table 6, FCPIA) was 0.0054 µM and the Emax at 10 µM [3] was -2.6%.

`Cc1ccc(Cn2sc(=O)n(Cc3ccccc3)c2=O)cc1` [CCG-203734, 2-(4-methylbenzyl)-4-benzyl-1,2,4-thiadiazolidine-3,5-dione] was tested, and the “RGS8 Hill Slope” value [1] was −0.66, the IC50 [1, 4] was 20.4 µM and the “RGS4 Hill Slope” value [2] was −0.84. For the same compound, the IC50 ([2]; Table 6, FCPIA) was 0.0072 µM and the Emax at 10 µM [3] was 591%.

With `COc1ccc(-n2sc(=O)n(Cc3ccc(F)cc3)c2=O)cc1` [CCG-203735, 2-(4-methoxyphenyl)-4-(4-fluorobenzyl)-1,2,4-thiadiazolidine-3,5-dione] the “RGS8 Hill Slope” value [1] was −1.27, the IC50 ([1]; Table 6, FCPIA) was 11.4 µM and the “RGS4 Hill Slope” value [2] was −1.33. It also gave an IC50 [2, 4] of 0.011 µM and an Emax at 10 µM [3] of 6.2%.

With `Cc1ccc(Cn2c(=O)sn(-c3ccc(C)cc3)c2=O)cc1` [CCG-203736, 2-p-tolyl-4-(4-methylbenzyl)-1,2,4-thiadiazolidine-3,5-dione] the “RGS8 Hill Slope” value [1] was −1.45, the IC50 [1, 4] was 11.6 µM and the “RGS4 Hill Slope” value [2] was −1.35. It also gave an IC50 ([2]; Table 6, FCPIA) of 0.0086 µM and an Emax at 10 µM [3] of 4.9%.

`Cc1ccc(Cn2sc(=O)n(Cc3ccc(F)cc3)c2=O)cc1` [CCG-203742, 2-(4-methylbenzyl)-4-(4-fluorobenzyl)-1,2,4-thiadiazolidine-3,5-dione] was tested, and the “RGS8 Hill Slope” value [1] was −0.22, the IC50 [1, 4] was 39.8 µM and the “RGS4 Hill Slope” value [2] was −1.19. The IC50 [2, 4] was 0.013 µM and the Emax at 10 µM [3] was 108%.

With `Cc1ccc(-n2sc(=O)n(Cc3ccc(Cl)c(Cl)c3)c2=O)cc1` [CCG-203743, 2-p-tolyl-4-(3,4-dichlorobenzyl)-1,2,4-thiadiazolidine-3,5-dione] the “RGS8 Hill Slope” value [1] was −0.65, the IC50 [1, 4] was 15.7 µM and the “RGS4 Hill Slope” value [2] was −1.43. The IC50 [2, 4] was 0.034 µM and the Emax at 10 µM [3] was 45.6%.

With `COc1ccc(-n2sc(=O)n(Cc3ccccc3)c2=O)cc1` [CCG-203746, 2-(4-methoxyphenyl)-4-benzyl-1,2,4-thiadiazolidine-3,5-dione] the “RGS8 Hill Slope” value [1] was −1.00, the IC50 [1, 4] was 12.3 µM and the “RGS4 Hill Slope” value [2] was −1.45. It also gave an IC50 [2, 4] of 0.024 µM and an Emax at 10 µM [3] of 74.6%.

Work on `COc1ccc(Cn2c(=O)sn(-c3ccc(C)cc3)c2=O)cc1` [CCG-203754, 2-p-tolyl-4-(4-methoxybenzyl)-1,2,4-thiadiazolidine-3,5-dione] yielded an IC50 ([1]; Table 6, FCPIA) of 312 µM.

In the case of `CCCCn1sc(=O)n(C)c1=O` [CCG-203757, 2-butyl-4-methyl-1,2,4-thiadiazolidine-3,5-dione], the “RGS8 Hill Slope” value [1] is reported as −1.10, the IC50 [1, 4] is reported as 28.4 µM and the “RGS4 Hill Slope” value [2] is reported as −1.01. The IC50 ([2]; Table 6, FCPIA) was 0.0235 µM and the Emax at 10 µM [3] was 138%.

Compound `CCn1sc(=O)n(C)c1=O` [CCG-203758, 2-ethyl-4-methyl-1,2,4-thiadiazolidine-3,5-dione] has an IC50 ([1]; Table 6, FCPIA) of 37 µM and an IC50 ([2]; Table 6, FCPIA) of 0.0223 µM.

`Cc1ccc(-n2sc(=O)n(C)c2=O)cc1` [CCG-203759, 2-p-tolyl-4-methyl-1,2,4-thiadiazolidine-3,5-dione] was tested, and the “RGS8 Hill Slope” value [1] was −1.06, the IC50 ([1]; Table 6, FCPIA) was 8.4 µM and the “RGS4 Hill Slope” value [2] was −1.56. It also gave an IC50 [2, 4] of 0.019 µM and an Emax at 10 µM [3] of 238%.

With `Cn1c(=O)sn(C(C)(C)C)c1=O` [CCG-203760, 2-t-butyl-4-methyl-1,2,4-thiadiazolidine-3,5-dione] the “RGS8 Hill Slope” value [1] was −0.89, the IC50 ([1]; Table 6, FCPIA) was 56 µM and the “RGS4 Hill Slope” value [2] was −0.99. For the same compound, the IC50 [2, 4] was 0.028 µM, the “induction of calcium transient by compound alone” value [3] was “no ability to induce calcium mobilization” and the Emax at 10 µM [3] was 47.2%.

`Cc1ccc(-n2sc(=O)n(CC(C)C)c2=O)cc1` [CCG-203761, 2-p-tolyl-4-isobutyl-1,2,4-thiadiazolidine-3,5-dione] was tested, and the “RGS8 Hill Slope” value [1] was −0.92, the IC50 ([1]; Table 6, FCPIA) was 7.7 µM and the “RGS4 Hill Slope” value [2] was −1.47. For the same compound, the IC50 ([2]; Table 6, FCPIA) was 0.014 µM and the Emax at 10 µM [3] was 98.9%.

In the case of `CCn1sc(=O)n(CC(C)C)c1=O` [CCG-203762, 2-ethyl-4-isobutyl-1,2,4-thiadiazolidine-3,5-dione], the “RGS8 Hill Slope” value [1] is reported as −0.78, the IC50 ([1]; Table 6, FCPIA) is reported as 70.6 µM and the “RGS4 Hill Slope” value [2] is reported as −0.87. For the same compound, the IC50 [2, 4] was 0.026 µM, the “induction of calcium transient by compound alone” value [3] was “no ability to induce calcium mobilization” and the Emax at 10 µM [3] was 38.3%.

`CCn1sc(=O)n(Cc2ccc(F)cc2)c1=O` [CCG-203766, 2-ethyl-4-(4-fluorobenzyl)-1,2,4-thiadiazolidine-3,5-dione] was tested, and the IC50 ([1]; Table 6, FCPIA) was 18.7 µM and the IC50 ([2]; Table 6, FCPIA) was 0.0223 µM.

For `Cc1ccc(CN2C(=O)CN(c3ccc(C)cc3)C2=O)cc1` [CCG-203778], the IC50 [1, 5] was over 100 µM and the IC50 [2, 5] was over 100 µM.

Compound `Cc1ccc(C2=CC(=O)N(Cc3ccccc3)C2=O)cc1` [CCG-203779] has an IC50 [2, 5] of 93 µM.

`Cc1ccc(-n2sc(=O)n(Cc3cccc(C)c3)c2=O)cc1` [CCG-203782, 2-(4-methylphenyl)-4-(3-methylbenzyl)-1,2,4-thiadiazolidine-3,5-dione] was tested, and the IC50 ([1]; Table 6, FCPIA) was 9.9 µM and the IC50 ([2]; Table 6, FCPIA) was 0.0145 µM.

`CC(C)(C)c1ccc(-n2sc(=O)n(Cc3ccc(F)cc3)c2=O)cc1` [S1, 2-(4-t-butylphenyl)-4-(4-fluorobenzyl)-1,2,4-thiadiazolidine-3,5-dione] was tested, and the IC50 ([1]; Table 6, FCPIA) was 50.4 µM.

For `O=c1sn(-c2ccccc2)c(=O)n1Cc1ccc(Cl)cc1` [S4, 2-phenyl-4-(4-chlorobenzyl)-1,2,4-thiadiazolidine-3,5-dione], the IC50 ([1]; Table 6, FCPIA) was 7.5 µM.

With `O=c1sn(-c2ccc(Cl)c(Cl)c2)c(=O)n1Cc1ccc(Cl)cc1` [S7, 2-(3,4-dichlorophenyl)-4-(4-chlorobenzyl)-1,2,4-thiadiazolidine-3,5-dione] the IC50 ([1]; Table 6, FCPIA) was 43.2 µM.

`COc1ccc(-n2sc(=O)n(Cc3ccc(C)cc3)c2=O)cc1` [S11, 2-(4-methoxyphenyl)-4-(4-methylbenzyl)-1,2,4-thiadiazolidine-3,5-dione] gave an IC50 ([1]; Table 6, FCPIA) of 6.6 µM.

Work on `CC(C)(C)c1ccc(-n2sc(=O)n(Cc3cccc(Cl)c3)c2=O)cc1` [S15, 2-(4-t-butylphenyl)-4-(3-chlorobenzyl)-1,2,4-thiadiazolidine-3,5-dione] yielded an IC50 ([1]; Table 6, FCPIA) of 32.2 µM.

`O=c1sn(-c2cccc(C(F)(F)F)c2)c(=O)n1Cc1cccc(Cl)c1` [S18, 2-(3-trifluoromethylphenyl)-4-(3-chlorobenzyl)-1,2,4-thiadiazolidine-3,5-dione] was tested, and the IC50 ([1]; Table 6, FCPIA) was 16.2 µM.

With `Cc1cccc(Cn2c(=O)sn(-c3ccc(C(C)(C)C)cc3)c2=O)c1` [S20, 2-(4-t-butylphenyl)-4-(3-methylbenzyl)-1,2,4-thiadiazolidine-3,5-dione] the IC50 ([1]; Table 6, FCPIA) was 17.8 µM.

`Cc1cccc(Cn2c(=O)sn(-c3cccc(Cl)c3)c2=O)c1` [S22, 2-(3-chlorophenyl)-4-(3-methylbenzyl)-1,2,4-thiadiazolidine-3,5-dione] was tested, and the IC50 ([1]; Table 6, FCPIA) was 31 µM.

`Cc1cccc(Cn2c(=O)sn(-c3cccc(C(F)(F)F)c3)c2=O)c1` [S23, 2-(3-trifluoromethylphenyl)-4-(3-methylbenzyl)-1,2,4-thiadiazolidine-3,5-dione] was tested, and the “RGS8 Hill Slope” value [1] was −1.03, the IC50 [1, 4] was 15.9 µM and the IC50 ([1]; Table 6, FCPIA) was 15.9 µM. It also gave an Emax at 10 µM [3] of 65.2%.

For `Cc1ccc(Cn2c(=O)sn(-c3ccc(Cl)c(Cl)c3)c2=O)cc1` [S!2, 2-(3,4-dichlorophenyl)-4-(4-methylbenzyl)-1,2,4-thiadiazolidine-3,5-dione], the IC50 ([1]; Table 6, FCPIA) was 175 µM.

In the case of `Cc1ccc(CN2C(=O)CN(c3ccc(C)cc3)C2=O)cc1` [compound 14, 3-(4-methylbenzyl)-1-p-tolylimidazolidine-2,4-dione], the IC50 ([1]; Table 6, FCPIA) is reported as over 100 µM, the “activity at RGS4” value [2] is reported as “Neither 14 or 15 displayed activity at RGS4” and the IC50 ([2]; Table 6, FCPIA) is reported as over 100 µM.

For `Cc1ccc(C2=CC(=O)N(Cc3ccccc3)C2=O)cc1` [compound 15, 1-benzyl-3-p-tolyl-1H-pyrrole-2,5-dione], the “activity at RGS4” value [2] was “Neither 14 or 15 displayed activity at RGS4”.

Reference: US8865750B2, “Small molecule inhibitors of RGS proteins” (The Regents of The University of Michigan, priority 2011, dated 2014)
